Test systems include UACC-62; CAKI-1; SN12C; IGROV-1; OVCAR-5; Malme-3M; UO-31; KM12; SK-OV-3; HOP-62; NCI/ADR-RES; SK-MEL-2; HOP-92; SF-268; OVCAR-8; LOX IMVI; COLO 205; SK-MEL-28; SK-MEL-5.
What all share (experiment): NCI tumour cell line growth inhibition, 48 h

Consider 11 molecules from ChEMBL document CHEMBL1201862, “PubChem BioAssay data set” (2004).

Structures are written as SMILES.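 Values below derive from 48-hour exposures of cells grown in 96-well plates, with endpoints linearly interpolated between the two concentrations bracketing the appropriate inhibition level. Abbreviation: GI50, concentration required for 50% inhibition of growth.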 Calls of active or inactive are those of the source. No stated cut-off is given here; in the data, active = GI50 up to about 1.1 µM and inactive = higher.

Regarding `COc1ccc2[nH]c3c([N+](=O)[O-])ccc(Cl)c3c(=O)c2c1`, the GI50 is 18 µM (inactive) with UACC-62; 23.2 µM (inactive) with CAKI-1; 22.9 µM (inactive) in the test on SN12C; 13.1 µM (inactive) in the test on IGROV-1; > 43 µM (inactive) in the test with OVCAR-5; 19.6 µM (inactive) with Malme-3M. For the same molecule, the GI50 in the test with UO-31 was 17.3 µM (inactive); in the test with KM12, > 45.5 µM (inactive); with SK-OV-3, > 63.1 µM (inactive); with HOP-62, 26.7 µM (inactive); in the test on NCI/ADR-RES it was 25.6 µM (inactive); in the test with SK-MEL-2 it was 22.1 µM (inactive). For the same molecule, the GI50 in the test on HOP-92 is 14 µM (inactive); in the test on SF-268 it was 20.8 µM (inactive); in the test on OVCAR-8, 22 µM (inactive); in the test with LOX IMVI, 7.71 µM (inactive); in the test with COLO 205 it was 17 µM (inactive); with SK-MEL-28, 27.2 µM (inactive). Also, the GI50 with SK-MEL-5 is 23.9 µM (inactive).

Consider `O=C(OCc1ccccc1[N+](=O)[O-])N1c2ccccc2[C@@]23O[C@]24CCC[C@H]3C#C/C=C\C#C[C@H]14`, for which the GI50 in the test on UACC-62 was 22.7 µM (inactive); with CAKI-1, 7.36 µM (inactive); in the test with SN12C, 13.7 µM (inactive); in the test on IGROV-1 it was > 100 µM (inactive); with OVCAR-5 it was 66.7 µM (inactive); in the test with Malme-3M it was 8.38 µM (inactive). The GI50 was 21 µM (inactive) in the test with UO-31; > 100 µM (inactive) with KM12; > 100 µM (inactive) with SK-OV-3; 31.3 µM (inactive) in the test on NCI/ADR-RES; > 100 µM (inactive) in the test with SK-MEL-2; 25.6 µM (inactive) in the test with HOP-92. The GI50 in the test on SF-268 was 75 µM (inactive); with OVCAR-8 it was 49 µM (inactive); in the test on LOX IMVI it was 6.73 µM (inactive); with COLO 205, 67.3 µM (inactive); with SK-MEL-28, 44.1 µM (inactive); in the test with SK-MEL-5 it was 12.4 µM (inactive).

With `COC1OCC(O)C(NC(=O)N(C)N=O)C1O` (stereo not drawn), the GI50 with UACC-62, in the test with CAKI-1, in the test on SN12C, in the test on IGROV-1, in the test with OVCAR-5 and in the test with Malme-3M was > 100 µM (inactive) each time. Further, the GI50 in the test on UO-31, in the test on KM12, in the test with SK-OV-3, with HOP-62, in the test with NCI/ADR-RES and with SK-MEL-2 was > 100 µM (inactive) in each case. The GI50 in the test with HOP-92, in the test on SF-268, with OVCAR-8, in the test on LOX IMVI, in the test on COLO 205 and in the test on SK-MEL-28 was > 100 µM (inactive) in each case. In the test on SK-MEL-5, the GI50 is > 100 µM (inactive).

For the molecule `O=C1CNCCCN2CCN(CCCNCC(=O)Nc3ccc(cc3)S(=O)(=O)c3ccc(cc3)NC(=O)CNCCCN3CCN(CCCNCC(=O)Nc4ccc(cc4)S(=O)(=O)c4ccc(cc4)N1)CC3)CC2`, the GI50 with UACC-62 was 32.9 µM (inactive); in the test on CAKI-1, 30.1 µM (inactive); in the test with SN12C, > 45.3 µM (inactive); in the test on IGROV-1, 21.2 µM (inactive); in the test on OVCAR-5, 31.4 µM (inactive); in the test with Malme-3M, 11.9 µM (inactive). Moreover, the GI50 with UO-31 is 61 µM (inactive); in the test with KM12 it was 27.2 µM (inactive); in the test on SK-OV-3, > 100 µM (inactive); in the test with HOP-62, 25.1 µM (inactive); in the test with NCI/ADR-RES, 40.3 µM (inactive); in the test with SK-MEL-2, 35.1 µM (inactive). The GI50 in the test with HOP-92 is 28.1 µM (inactive); with SF-268, 22.9 µM (inactive); in the test with OVCAR-8 it was 24.8 µM (inactive); in the test on LOX IMVI, 21 µM (inactive); in the test with COLO 205, 34.8 µM (inactive); in the test with SK-MEL-28, 22.3 µM (inactive). In addition, the GI50 in the test with SK-MEL-5 is 25.1 µM (inactive).

With `CNC(=O)CCCN(C)C(=O)CCCCC(=O)N(C)C`, the GI50 with UACC-62 was > 57.4 µM (inactive); in the test with CAKI-1 it was > 37.6 µM (inactive); in the test with SN12C, > 61.1 µM (inactive); in the test with IGROV-1, > 58.7 µM (inactive); in the test on OVCAR-5 it was > 100 µM (inactive); in the test on Malme-3M, 33.5 µM (inactive). In addition, the GI50 with UO-31 is > 61 µM (inactive); in the test on KM12 it was > 59.7 µM (inactive); with SK-OV-3 it was > 61.5 µM (inactive); in the test with HOP-62 it was > 100 µM (inactive); in the test on NCI/ADR-RES, > 59 µM (inactive); in the test with SK-MEL-2, > 50.9 µM (inactive). The GI50 in the test with HOP-92 is > 60.1 µM (inactive); with SF-268, > 60.8 µM (inactive); with OVCAR-8, > 60.8 µM (inactive); in the test with LOX IMVI, > 57.5 µM (inactive); in the test on COLO 205 it was > 57.7 µM (inactive); in the test with SK-MEL-28 it was > 54.2 µM (inactive). For the same molecule, in the test with SK-MEL-5, the GI50 is 36.6 µM (inactive).

On to `C[C@]12CC[C@H]3[C@@H](CCC4=CC(=O)CC[C@@]43C)[C@@H]1CC[C@@H]2OC(=O)c1cccc2c(=O)c3ccccc3[nH]c12`, for which the GI50 in the test with UACC-62 was 29.4 µM (inactive); in the test with SN12C, > 100 µM (inactive); in the test with IGROV-1 it was > 100 µM (inactive); with OVCAR-5 it was > 100 µM (inactive); in the test with Malme-3M, 47.3 µM (inactive); in the test with UO-31, > 100 µM (inactive). In addition, the GI50 with KM12 was 37.2 µM (inactive); with SK-OV-3, 58.5 µM (inactive); in the test on HOP-62, 63.5 µM (inactive); in the test with NCI/ADR-RES it was 64 µM (inactive); in the test with SK-MEL-2 it was > 100 µM (inactive); with HOP-92, 84.5 µM (inactive). Also, the GI50 in the test on SF-268 was 18.2 µM (inactive); with OVCAR-8, > 100 µM (inactive); in the test on LOX IMVI it was 26.9 µM (inactive); with COLO 205, > 100 µM (inactive); with SK-MEL-28, > 100 µM (inactive); with SK-MEL-5 it was 37.4 µM (inactive).

Turning to `COc1ccc(OC)c2c(C)ccnc12`, the GI50 was 25.3 µM (inactive) in the test with UACC-62; 28.9 µM (inactive) in the test with CAKI-1; 22.1 µM (inactive) with SN12C; 10.7 µM (inactive) in the test with IGROV-1; 46.1 µM (inactive) in the test on OVCAR-5; 12.2 µM (inactive) in the test with Malme-3M. In addition, the GI50 is 6.78 µM (inactive) in the test on UO-31; 37.2 µM (inactive) with KM12; > 86.1 µM (inactive) with SK-OV-3; 9.75 µM (inactive) in the test on HOP-62; 12.9 µM (inactive) in the test with NCI/ADR-RES; 22.8 µM (inactive) in the test with SK-MEL-2. Also, the GI50 was 18.6 µM (inactive) in the test with HOP-92; 9.89 µM (inactive) in the test with SF-268; 14.9 µM (inactive) in the test on OVCAR-8; 5.28 µM (inactive) in the test on LOX IMVI; 39.5 µM (inactive) in the test with COLO 205; 36.6 µM (inactive) in the test with SK-MEL-28. For the same molecule, the GI50 with SK-MEL-5 is 22.2 µM (inactive).

For `CCOC(=O)c1nnsc1NN`, the GI50 in the test on UACC-62 is > 100 µM (inactive); in the test with CAKI-1 it was 76.2 µM (inactive); with SN12C it was > 100 µM (inactive); in the test on IGROV-1, > 100 µM (inactive); in the test on OVCAR-5 it was > 100 µM (inactive); in the test on UO-31, > 100 µM (inactive). Further, the GI50 in the test on KM12 is 95.3 µM (inactive); with SK-OV-3, > 100 µM (inactive); in the test with HOP-62, > 100 µM (inactive); in the test with NCI/ADR-RES it was > 100 µM (inactive); in the test with SK-MEL-2, > 100 µM (inactive); in the test on HOP-92 it was > 100 µM (inactive). The GI50 was > 100 µM (inactive) in the test with SF-268; > 100 µM (inactive) in the test with OVCAR-8; 30.1 µM (inactive) in the test with LOX IMVI; > 100 µM (inactive) in the test with COLO 205; > 100 µM (inactive) in the test with SK-MEL-28; > 100 µM (inactive) in the test on SK-MEL-5.

Regarding `COc1cc2c(cc1-c1coc3cc(O)ccc3c1=O)OCO2` [CUNEATIN], the GI50 is 23.6 µM (inactive) in the test on UACC-62; 24 µM (inactive) with CAKI-1; 25.4 µM (inactive) in the test on SN12C; 22.9 µM (inactive) in the test on IGROV-1; 40.2 µM (inactive) in the test with OVCAR-5; 22.1 µM (inactive) in the test with UO-31. Besides, the GI50 in the test with KM12 was 33.3 µM (inactive); in the test with SK-OV-3, 19.9 µM (inactive); with HOP-62, 16.4 µM (inactive); with NCI/ADR-RES, 21.8 µM (inactive); with SK-MEL-2, 37 µM (inactive); in the test with HOP-92 it was 29 µM (inactive). Further, the GI50 with SF-268 is 19.3 µM (inactive); with OVCAR-8 it was 19.3 µM (inactive); in the test with LOX IMVI, 46.6 µM (inactive); in the test with COLO 205, > 100 µM (inactive); with SK-MEL-28, 45.8 µM (inactive); in the test on SK-MEL-5 it was 37.2 µM (inactive).

Take `COC(=O)[C@H](Cc1ccccc1)NC(=O)OCC1OC(n2cc(C)c(=O)[nH]c2=O)CC1N=[N+]=[N-]` (stereo partly drawn): the GI50 in the test with UACC-62, with CAKI-1, with SN12C, in the test on IGROV-1, with OVCAR-5 and in the test on Malme-3M was > 100 µM (inactive) each time. Further, the GI50 with UO-31, with KM12, in the test on SK-OV-3, in the test with HOP-62, in the test with NCI/ADR-RES and in the test on SK-MEL-2 was > 100 µM (inactive) throughout. Further, the GI50 is > 100 µM (inactive) in the test with HOP-92; > 100 µM (inactive) in the test with SF-268; > 100 µM (inactive) with OVCAR-8; > 100 µM (inactive) in the test with LOX IMVI; > 100 µM (inactive) in the test on COLO 205; 4.12 µM (inactive) with SK-MEL-5.

Take `COc1ccccc1/C=C\c1cnnc2ccccc12`: the GI50 in the test on UACC-62 was > 10 µM (inactive); with CAKI-1, > 10 µM (inactive); in the test on SN12C, > 10 µM (inactive); in the test with IGROV-1 it was 8.63 µM (inactive); with OVCAR-5, > 10 µM (inactive); in the test on Malme-3M, > 10 µM (inactive). Further, the GI50 in the test on KM12 was > 10 µM (inactive); in the test with SK-OV-3, > 10 µM (inactive); in the test on HOP-62, > 10 µM (inactive); in the test with NCI/ADR-RES it was > 10 µM (inactive); in the test with SK-MEL-2 it was > 10 µM (inactive); in the test on HOP-92, 0.0372 µM (active). Besides, the GI50 in the test on SF-268 is > 10 µM (inactive); in the test with OVCAR-8 it was > 10 µM (inactive); in the test with LOX IMVI, 3.66 µM (inactive); in the test on COLO 205, > 10 µM (inactive); with SK-MEL-28, > 10 µM (inactive); in the test with SK-MEL-5, 6.71 µM (inactive).
